Experimental findings from US20220031680A1, “Donecopride As Neuroprotective Agent In the Treatment of Neurodegenerative Diseases” (priority 2018, published 2022) are described below.

The subject of this experiment is dopaminergic TH-positive neurons injured with MPP+. Nature of the experiment: Survival and neurite network of TH neurons in primary mesencephalic culture injured with MPP+. Conditions: MPP+ 4 μM 48 h; 1 h pre-incubation. It is filed as cell-based, rat. Here is the method:
The aim of the present study was to investigate the neuroprotective effect of MR36014 and MR33583 (at 4 concentrations) on dopaminergic TH-positive neurons injured with MPP^+. The test compounds were pre-incubated for 1 hour before MPP^+ application (4 μM for 48 h). The neuroprotective effect (survival and neurite network) of test compounds was investigated. In addition, the effect on the cytoplasmic alpha-synuclein accumulation was studied.
Rat dopaminergic neurons were cultured as described by Callizot et al. (2019) PLoS One 14:e0215277 and Visanji et al. (2008) FASEB J. 22:2488-2497. Briefly, pregnant female rat (Wistar) of 15 days of gestation were killed using a deep anesthesia with CO2 chamber and a cervical dislocation. The midbrains obtained from 15-day-old rat embryos (Janvier, France) were dissected under a microscope. […]
Midbrains were dissociated by trypsinisation for 20 min at 37° C. […] Viable cells were counted in a Neubauer cytometer using the trypan blue exclusion test. […]
Briefly, on day 6 of culture, the medium was removed, and fresh medium was added, with or without test compounds and with or without MPP^+ for 48 hours diluted in control medium. 6 wells per condition were assessed. […]
Test compounds were tested in 96-well plate (n=6 culture wells per condition). […] The following conditions were assessed: […]

Regarding `COc1cc(N)c(F)cc1C(=O)CCC1CCN(CC2CCCC2)CC1` [MR33583], the “concentrations improving TH neuron survival” value was 100 nM.

Regarding `COc1cc(N)c(F)cc1C(=O)CCC1CCN(CC2CCCCCC2)CC1` [MR36014], the “concentrations protecting the neurite network of TH neurons” value is recorded as “all investigated doses”.
